“Also recorded” adds a separate entry of the source.
What was measured:
[1] = target: T1, LANCL2 (Homo sapiens, UniProt Q9NS86); assay: Surface plasmon resonance (SPR) binding to LANCL2; conditions: Tables 1A and 1B; read-out: SPR Affinity to LANCL2 (Kd)
T1 sequence (Q9NS86 1-450): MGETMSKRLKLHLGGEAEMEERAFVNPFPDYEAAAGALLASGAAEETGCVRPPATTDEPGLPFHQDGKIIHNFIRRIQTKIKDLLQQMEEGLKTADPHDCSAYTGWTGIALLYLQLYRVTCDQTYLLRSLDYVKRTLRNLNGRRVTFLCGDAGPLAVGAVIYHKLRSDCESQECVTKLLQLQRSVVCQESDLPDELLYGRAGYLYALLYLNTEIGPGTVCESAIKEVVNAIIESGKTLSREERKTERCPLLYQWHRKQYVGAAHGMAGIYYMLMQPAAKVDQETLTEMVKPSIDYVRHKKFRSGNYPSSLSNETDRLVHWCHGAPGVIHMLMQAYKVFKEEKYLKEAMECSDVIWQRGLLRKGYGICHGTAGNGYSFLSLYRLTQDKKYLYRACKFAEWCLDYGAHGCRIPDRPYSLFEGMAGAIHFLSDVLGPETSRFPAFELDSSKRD

[2] = tested on: Mdr1a−/− mice; assay: Mdr1a−/− model of colitis (IBD); assay type: in vivo
Description: Mdr1a−/− model. Mdr1a−/− mice develop spontaneous colitis. […] Mice were weighed and scored weekly to monitor the development of colitis. At 10 weeks of age, Mdr1a−/− were sacrificed for the collection of tissue for downstream assay. DSS model. Lancl2^ΔT and Lancl2-expressing controls were given dextran sulfate sodium in drinking water for seven days. Following seven days, standard drinking water was returned. Mice were weighed and scored daily. Mice were euthanized for tissue collection at 7 and 10 days of experimental timeline. Adoptive transfer model. WT and Lancl2−/− donor spleens were crushed and enriched for CD4+ fraction by magnetic sorting. CD4+CD45RB^hiCD25− (Teff) and CD4+CD45RB^loCD25+ (Treg) cells were sorted by a FACSAria cell sorter. Based on indicated experimental group, Rag2−/− recipient mice received 4×10^5 Teff and 1×10^5 Treg cells from WT or Lancl2−/− origin by intraperitoneal injection. […] Mice were weighed and scored weekly until euthanasia at 8 weeks post-transfer.
Colons and mesenteric lymph nodes (MLN) were collected into RPMI/FBS buffer containing collagenase (300U/mL) and DNase (50U/mL) for digestion. Following filtration of the resulting single cell suspensions, immune cells were purified by Percoll gradient. Cells were labeled with mixtures of extracellular (CD45, CD3, CD4, CD8, CD19, NK1.1, CD25, F4/80, CD11b, CX3CR1, CD64) and intracellular (Tbet, RORγT, FOXP3, IFNγ, IL17, IL10) antibodies in a sequential live staining in 96-well plates. Data was acquired using a FACS Celesta flow cytometer with FACSDiva software.
Total RNA from colon and cells was generated using the Qiagen RNeasy mini kit. cDNA was generated using the BioRad iScript cDNA synthesis kit. Standard curves were generated by serial dilution of purified product from a standard PCR reaction with Taq DNA polymerase followed by purification using the Qiagen MinElute PCR purification kit. Expression levels were obtained from quantitative real-time PCR with SybrGreen supermix on a BioRad CFX96 Thermal cycler followed by normalization to expression of β-actin as described previously.
H&E stained colonic sections were prepared from portions of colons collected into 10% buffered formalin and embedded in paraffin. Slides were examined by a board-certified veterinary pathologist via an Olympus microscope and images were collected with Image-Pro software. Samples were scored (0-4) for leukocytic infiltration, epithelial erosion and mucosal thickening.

[3] = tested on: Lancl2ΔT and Lancl2-expressing control mice challenged with DSS; assay: DSS model of colitis; assay type: in vivo
[4] = tested on: CD4+ T cells co-cultured with in vitro differentiated Tregs; assay: Co-assay of CD4+ T cells and BT-11 pre-treated Treg cells; assay type: cell-based, mice
Method: (§1) Spleens from WT and Lancl2−/− mice were excised and crushed to generate a single cell suspension. CD4+ T cell fraction was enriched by negative selection via magnetic sorting with the BD IMag system. Naïve CD4+ T cells were obtained by incubation with a biotinylated CD62L antibody followed by conjugation to streptavidin coated magnetic beads. Naïve cells were incubated for 48 hours within anti-CD3 coated tissue culture plates in complete IMDM media containing all-trans retinoic acid and purified TGF-β to stimulate differentiation into Tregs. […] Metabolic modulators, PS-48 (5 μM), DASA-58 (10 μM), and thapsigargin (10 nM), were added at 0 h. […] Six hours prior to assay, cells were stimulated with PMA and ionomycin. Cells were collected from plate for downstream analysis by flow cytometry, gene expression and metabolic assay.
After two days cells were collected and plated with freshly collected CFSE-labeled CD4+ T cells.

[5] = tested on: in vitro differentiated Tregs; assay: Gene expression of Treg stability genes in in vitro differentiated Tregs; assay type: cell-based, mice; conditions: WT Tregs
Description: Total RNA from colon and cells was generated using the Qiagen RNeasy mini kit. cDNA was generated using the BioRad iScript cDNA synthesis kit. Standard curves were generated by serial dilution of purified product from a standard PCR reaction with Taq DNA polymerase followed by purification using the Qiagen MinElute PCR purification kit. Expression levels were obtained from quantitative real-time PCR with SybrGreen supermix on a BioRad CFX96 Thermal cycler followed by normalization to expression of β-actin as described previously [33].
Spleens from WT and Lancl2−/− mice were excised and crushed to generate a single cell suspension. CD4+ T cell fraction was enriched by negative selection via magnetic sorting with the BD IMag system. Naïve CD4+ T cells were obtained by incubation with a biotinylated CD62L antibody followed by conjugation to streptavidin coated magnetic beads. Naïve cells were incubated for 48 hours within anti-CD3 coated tissue culture plates in complete IMDM media containing all-trans retinoic acid and purified TGF-β to stimulate differentiation into Tregs [18]. […] Metabolic modulators, PS-48 (5 μM), DASA-58 (10 μM), and thapsigargin (10 nM), were added at 0 h. […] Six hours prior to assay, cells were stimulated with PMA and ionomycin. Cells were collected from plate for downstream analysis by flow cytometry, gene expression and metabolic assay. […]

[6] = tested on: CD4+ T cells; assay: Differentiation of CD4+ T cells into Tregs with metabolic modulators; assay type: cell-based, mice; conditions: BT-11 with PS-48 (5 μM), DASA-58 (10 μM) or thapsigargin (10 nM)
Method: as §1

[7] = tested on: PBMCs from Crohn's disease donors; assay: PBMCs isolated from Crohn's disease donors, 24 hour culture; assay type: cell-based, human
Method: (§2) Fresh de-identified whole blood was obtained from commercial vendor. Blood was diluted and purified for PBMC fraction by LeukoSep tube. Remaining red blood cells were lysed by hypotonic lysis. […] For siRNA experiments, cells were first incubated with an OriGene 3-mer LANCL2 siRNA or scrambled control suspended within ViromerGreen transfection reagent for 6 hours. […] Cells were stimulated with PMA and ionomycin six hours prior to assay.
(§3) Whole blood was obtained from Crohn's disease patients, clinically categorized as mild to moderate disease.

[8] = tested on: naïve CD4+ T cells isolated from human PBMCs; assay: Human naïve CD4+ T cells differentiated into Tregs; assay type: cell-based; conditions: differentiated into Tregs in presence of BT-11, dose dependent
Method: as §2, §3

[9] = tested on: C. difficile strain VPI 10463 (ATCC 43255); assay: C. difficile infection animal model; assay type: in vivo, mice; conditions: 8 mg/kg/d after infection
[10] = tested on: in vitro differentiated Tregs; assay: STAT5a and FOXO1 phosphorylation by Western blot in in vitro differentiated Tregs; assay type: cell-based, mice
Description: Cells were also differentiated in the presence of inhibitors for PTEN (SF1670) or STATS (STAT5i).

[11] = tested on: Naïve CD4+ T cells; assay: Differentiation of naïve CD4+ T cells into Tregs with IL-2 or IL-12 (flow cytometry); assay type: cell-based, mice; conditions: media containing IL-2 or IL-12, inhibitor SF1670 or STAT5i
Method: Naïve CD4+ T cells were isolated from the spleens of mice by magnetic sorting. The isolated cells were incubated in anti-CD3/anti-CD28 coated 96 well plates in Treg differentiation media. The Treg differentiation media was Iscove's Modified Dulbecco's Medium (IMDM) media (ThermoFisher Scientific) supplemented with fetal bovine serum, HEPES, penicillin/streptomycin, L-glutamine, and differentiation agents. The Treg differentiation agents were 10 nM all-trans-retinoic acid and 5 ng/mL TGF-β. Additional experiments were conducted comparing differentiation in the Treg differentiation media with and without the addition of 10 ng/mL IL-2 or IL-12. […] Prior to assay, cells were stimulated with PMA and ionomycin for 6 hours.
Colonic lamina propria lymphocytes and cultured cells were plated in 96 well plates (6×10^5 cells/well) and processed for immunophenotyping by flow cytometry as previously described. Briefly, cells were incubated with fluorochrome conjugated antibodies to extracellular markers: CD45, CD4, CD3, CD25, CD8. Samples needing a secondary staining were incubated with secondary antibodies, or streptavidin-conjugated fluorochrome. The samples were then fixed and permeabilized. Cells were incubated with antibodies to intracellular markers: Tbet, IFNγ, IL10, FOXP3, IL17, RORγT. Data was acquired with a BD FACS Celesta flow cytometer and analyzed using FACS Diva software (BD Pharmingen). […]

[12] = WT Treg pre-treated with BT-11, 24 h co-assay

Structure (SMILES): O=C(c1cccc(-c2nc3ccccc3[nH]2)n1)N1CCN(C(=O)c2cccc(-c3nc4ccccc4[nH]3)n2)CC1 [BT-11, N,N-Bis(benzimidazolylpicolinoyl)piperazine]
- Kd [1]: 7.7 µM
- colonic leukocytic infiltration, epithelial erosion and mucosal thickening ([2]; 8 mg/kg oral daily, at 10 weeks of age): reduced colonic leukocytic infiltration, epithelial erosion and mucosal thickening
- disease activity (development of disease) ([2]; 8 mg/kg oral daily, six weeks from four weeks of age): prevented the development of disease throughout the six-week period; also recorded: decreases disease activity index
- efficacy when given therapeutically ([2]; beginning after presentation of symptoms at 7 weeks of age): displays efficacy when given therapeutically
- percentages of IL-10-producing cellular subsets (CX3CR1+ macrophages, Treg cells) ([2]; colonic LP and MLN, 8 mg/kg oral daily): increased percentages of IL-10-producing cellular subsets
- inflammatory cytokines IFNγ, IL17A, IL6, TNFα, MCP1 ([2]; colonic gene expression and cytometric bead array): Down-regulation of inflammatory cytokines
- Th1 and Th17 cells in colonic lamina propria and mesenteric lymph nodes ([2]; flow cytometry, 8 mg/kg oral daily): significant (P<0.05) reductions
- whole colon Lancl2 expression ([2]; oral treatment): upregulated whole colon Lancl2
- Th1 and Th17 cells in colonic LP ([3]; Lancl2ΔT mice treated with BT-11): failed to induce characteristic reductions in Th1 and Th17 cells
- efficacy in DSS model with loss of LANCL2 in CD4+ T cells ([3]; Lancl2ΔT mice, seven-day DSS, oral BT-11): abrogated the efficacy of BT-11
- proliferative index and TNFα/IFNγ expression ([4]; KO (Lancl2−/−) Treg pre-treated with BT-11): did not induce changes in either measure
- expression of TNFα and IFNγ by cytometric bead array [4, 12]: lowered
- proliferative index of CD4+ T cells (CFSE) [4, 12]: lowered the proliferative index
- retention of Treg (FOXP3+IL10+) phenotype ([4]; WT Treg pre-treated with BT-11, after 24 h co-assay): greater retention of Treg (FOXP3+IL10+) phenotype
- expression of P2rx7 ([5]; 0.625 μM BT-11): significantly upregulated (P<0.05)
- expression of Socs2, Capn3, Irf7 and Lag3 ([5]; 48 hours of BT-11 treatment, significant at 0.625 μM): dose-dependent increase
- Treg cell differentiation [6]: increased differentiation of Tregs
- percentage of IL-10+ and FOXP3+ cells ([7]; 24 hour culture with BT-11): higher percentage of IL-10+ and FOXP3+ cells
- percentages of TNFα+ and IFNγ+ cells ([7]; 24 hour culture with BT-11): lower percentages of TNFα+and IFNγ+ cells
- commitment to effector phenotypes (IFNγ+ cells) ([7]; augmented (external) PEP concentration): prevented cells from an increased commitment to effector phenotypes
- stability-associated Treg markers (Lag3, Socs2, Irf7, P2rx7, Capn3, Ikzf2) [8]: upregulation of stability-associated Treg markers
- burden of C. difficile within the colon [9]: did not induce a decrease in the burden of C. difficile
- colonic pathology including infiltration of leukocytes [9]: reduced colonic pathology
- mortality [9]: complete protection against mortality
- neutrophils, Th1 and Th17 cells within the lamina propria [9]: reduced neutrophils, Th1 and Th17 cells
- regulatory T cells within the lamina propria [9]: increase in regulatory T cells
- disease activity scores ([9]; from day 2 onward): lower disease activity scores
- STAT5a phosphorylation ([10]; base Treg differentiation media and with IL-2 or IL-12): phosphorylated in a greater ratio
- FOXO1 phosphorylation ([10]; base media and media containing IL-2, but not IL-12): similarly affected

Structure (SMILES): CC(C)(C)C(=O)Nc1ccc2c(c1)C(=O)C(=O)c1ccccc1-2 [SF1670, reference compound]
- effects of BT-11 on CD25+ FOXP3+ and CD25+ Tbet+ cells with inhibitors [11]: only prevented effects of BT-11 on CD25+ Tbet+ cells in IL-2 containing media

Reference: US11197891B2, “Therapies with lanthionine C-like protein 2 ligands and cells prepared therewith” (Landos Biopharma, Inc., priority 2017, dated 2021)
